{
  "source": "ChEMBL document CHEMBL5385876",
  "about": "“Discovery of unglycosylated indolocarbazoles as ROCK2 isoform-selective inhibitors for the treatment of breast cancer metastasis” (Eur J Med Chem, 2023)",
  "key": {"MDA-MB-231 [1]": {"test_system": "MDA-MB-231", "assay": "Downregulation of phosphorylated STAT2 protein expression in human MDA-MB-231 cells at 0.5 uM incubated for 24 hrs by Western blot analysis", "format": "functional, cell-based"}, "[2]": {"assay": "Selectivity index, ratio of IC50 for ROCK2 (unknown origin) to IC50 for N-terminal His10-StrepII tagged human ROCK2 catalytic domain (1 to 553 residues) expressed in Sf9 insect cells"}, "MDA-MB-231 [3]": {"test_system": "MDA-MB-231", "assay": "Downregulation of phosphorylated STAT1 protein expression in human MDA-MB-231 cells at 0.5 uM incubated for 24 hrs by Western blot analysis", "format": "functional, cell-based"}, "[4]": {"target": "Maternal embryonic leucine zipper kinase (Homo sapiens) (UniProt Q14680)", "sequence (Q14680 whole entry, looked up)": "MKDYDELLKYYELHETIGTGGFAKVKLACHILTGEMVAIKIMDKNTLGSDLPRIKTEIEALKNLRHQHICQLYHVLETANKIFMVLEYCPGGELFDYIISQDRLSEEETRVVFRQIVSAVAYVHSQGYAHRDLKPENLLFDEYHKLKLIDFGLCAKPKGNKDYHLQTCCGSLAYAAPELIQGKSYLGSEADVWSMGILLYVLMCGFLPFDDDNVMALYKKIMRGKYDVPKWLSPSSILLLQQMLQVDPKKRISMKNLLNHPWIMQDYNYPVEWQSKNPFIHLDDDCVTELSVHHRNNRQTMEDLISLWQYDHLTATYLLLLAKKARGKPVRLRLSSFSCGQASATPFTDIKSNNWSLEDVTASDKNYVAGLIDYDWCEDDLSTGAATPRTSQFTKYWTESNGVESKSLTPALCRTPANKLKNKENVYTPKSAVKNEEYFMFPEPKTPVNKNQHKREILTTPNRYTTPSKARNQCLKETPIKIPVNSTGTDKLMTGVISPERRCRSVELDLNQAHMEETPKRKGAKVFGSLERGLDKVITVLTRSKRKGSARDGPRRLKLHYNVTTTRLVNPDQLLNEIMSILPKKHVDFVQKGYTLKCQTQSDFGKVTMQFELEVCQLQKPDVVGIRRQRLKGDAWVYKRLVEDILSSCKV", "assay": "Inhibition of human recombinant MELK at 125 nM"}, "MDA-MB-231 [5]": {"test_system": "MDA-MB-231", "assay": "Upregulation of phosphorylated STAT6 protein expression in human MDA-MB-231 cells at 0.5 uM incubated for 24 hrs by Western blot analysis", "format": "functional, cell-based"}, "[6]": {"target": "T1, Rho-associated protein kinase 2 (Homo sapiens, UniProt O75116)", "assay": "Inhibition of N-terminal His10-StrepII tagged human ROCK2 catalytic domain (1 to 553 residues) expressed in Sf9 insect cells by HTRF assay"}, "MDA-MB-231 [7]": {"test_system": "MDA-MB-231", "assay": "Inhibition of IL-6 stimulated phosphorylated STAT3 at Y705 residue expression in human MDA-MB-231 cells at 5 uM incubated for 24 hrs by Western blot analysis", "format": "functional, cell-based"}, "MDA-MB-231 [8]": {"test_system": "MDA-MB-231", "assay": "Antiproliferative activity against human MDA-MB-231 cells assessed as suppression of cell growth incubated for 72 hrs by SRB assay", "format": "functional, cell-based", "conditions": "MDA-MB-231, 72 h"}, "[9]": {"target": "Rho-associated protein kinase 1 (Homo sapiens, UniProt Q13464)", "sequence (Q13464 whole entry)": "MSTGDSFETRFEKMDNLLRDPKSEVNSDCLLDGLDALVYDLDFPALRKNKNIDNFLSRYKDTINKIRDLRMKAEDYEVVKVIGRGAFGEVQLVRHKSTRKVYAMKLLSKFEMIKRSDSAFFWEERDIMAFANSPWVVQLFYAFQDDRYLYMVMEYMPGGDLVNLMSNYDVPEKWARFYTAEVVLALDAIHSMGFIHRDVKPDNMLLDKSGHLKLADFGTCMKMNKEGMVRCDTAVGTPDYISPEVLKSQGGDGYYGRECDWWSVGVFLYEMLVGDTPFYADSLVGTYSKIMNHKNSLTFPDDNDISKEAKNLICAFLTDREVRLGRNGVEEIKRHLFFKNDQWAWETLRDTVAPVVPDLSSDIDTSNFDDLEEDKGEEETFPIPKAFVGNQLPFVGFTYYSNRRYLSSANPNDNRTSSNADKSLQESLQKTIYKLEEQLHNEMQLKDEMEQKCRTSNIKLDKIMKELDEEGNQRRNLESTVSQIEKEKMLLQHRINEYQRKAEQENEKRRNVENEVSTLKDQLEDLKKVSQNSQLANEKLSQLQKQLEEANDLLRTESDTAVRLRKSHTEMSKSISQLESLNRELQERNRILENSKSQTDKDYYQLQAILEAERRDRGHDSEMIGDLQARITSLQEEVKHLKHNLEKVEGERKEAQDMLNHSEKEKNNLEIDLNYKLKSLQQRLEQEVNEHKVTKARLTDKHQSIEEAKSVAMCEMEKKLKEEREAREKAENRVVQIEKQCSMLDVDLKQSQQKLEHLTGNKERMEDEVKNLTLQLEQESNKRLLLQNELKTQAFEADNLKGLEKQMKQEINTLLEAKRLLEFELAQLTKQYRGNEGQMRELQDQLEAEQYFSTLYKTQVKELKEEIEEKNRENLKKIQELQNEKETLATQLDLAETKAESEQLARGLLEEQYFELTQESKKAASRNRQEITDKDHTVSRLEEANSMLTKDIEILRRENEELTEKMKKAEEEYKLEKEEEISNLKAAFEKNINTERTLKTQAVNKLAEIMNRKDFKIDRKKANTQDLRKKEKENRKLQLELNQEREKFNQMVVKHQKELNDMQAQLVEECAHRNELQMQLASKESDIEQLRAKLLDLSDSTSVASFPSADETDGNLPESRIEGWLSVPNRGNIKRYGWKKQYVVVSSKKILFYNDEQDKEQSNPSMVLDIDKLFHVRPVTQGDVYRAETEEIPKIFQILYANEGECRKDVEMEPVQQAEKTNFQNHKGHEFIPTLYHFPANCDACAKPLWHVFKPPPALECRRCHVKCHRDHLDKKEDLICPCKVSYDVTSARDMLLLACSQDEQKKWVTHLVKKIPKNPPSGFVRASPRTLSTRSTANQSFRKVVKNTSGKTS", "assay": "Inhibition of ROCK1 (unknown origin)"}, "[10]": {"target": "Protein kinase C delta type (Homo sapiens, UniProt Q05655)", "assay": "Inhibition of PKCdelta (unknown origin)"}, "[11]": {"assay": "Volume of distribution at steady state in ICR mouse at 15 mg/kg, iv administered as single dose and measured for 8 hrs by LC-MS/MS analysis", "format": "ADME, organism-based", "conditions": "in vivo, read-out: Vdss"}, "[12]": {"target": "T1, Rho-associated protein kinase 2", "assay": "Binding affinity to wild type N-terminal His10-StrepII tagged human ROCK2 catalytic domain (1 to 553 residues) expressed in Sf9 insect cells assessed as change in melting temperature at 50 uM by SYPRO orange dye based thermal shift assay"}, "MDA-MB-231 [13]": {"test_system": "MDA-MB-231", "assay": "Downregulation of phosphorylated STAT3 protein expression in human MDA-MB-231 cells at 0.5 uM incubated for 24 hrs by Western blot analysis", "format": "functional, cell-based"}, "MDA-MB-231 [14]": {"test_system": "MDA-MB-231", "assay": "Inhibition of IL-6 stimulated cell invasion in human MDA-MB-231 cells at 5 uM incubated for 24 hrs by crystal violet staining based transwell assay", "format": "functional"}, "[15]": {"assay": "Selectivity index, ratio of IC50 for PKCdelta (unknown origin) to IC50 for N-terminal His10-StrepII tagged human ROCK2 catalytic domain (1 to 553 residues) expressed in Sf9 insect cells"}, "SK-OV-3 [16]": {"test_system": "SK-OV-3", "assay": "Inhibition of cell migration in human SK-OV-3 cells at 1.25 to 10 uM incubated for 48 hrs by scratch wound healing assay", "format": "functional, cell-based", "conditions": "dose 1.25-10 µM"}, "[17]": {"target": "Inhibitor of nuclear factor kappa-B kinase subunit beta (Homo sapiens, UniProt O14920)", "assay": "Inhibition of IKKbeta (unknown origin)"}, "MDA-MB-231 [18]": {"test_system": "MDA-MB-231", "assay": "Antimetastatic activity in human MDA-MB-231 cells assessed as appearance of disordered and sparse actin filament at 5 uM incubated for 24 hrs by SEM analysis", "format": "functional, cell-based"}, "[19]": {"test_system": "Rho-associated protein kinase 2 (Homo sapiens), O75116 [D232A]", "assay": "Binding affinity to N-terminal His10-StrepII tagged human ROCK2 D232A mutant catalytic domain (1 to 553 residues) expressed in Sf9 insect cells assessed as change in melting temperature at 50 uM by SYPRO orange dye based thermal shift assay"}, "MDA-MB-231 [20]": {"test_system": "MDA-MB-231", "assay": "Upregulation of phosphorylated STAT5A protein expression in human MDA-MB-231 cells at 0.5 uM incubated for 24 hrs by Western blot analysis", "format": "functional, cell-based"}, "[21]": {"target": "Signal transducer and activator of transcription 3 (Homo sapiens) (UniProt P40763)", "sequence (P40763 whole entry)": "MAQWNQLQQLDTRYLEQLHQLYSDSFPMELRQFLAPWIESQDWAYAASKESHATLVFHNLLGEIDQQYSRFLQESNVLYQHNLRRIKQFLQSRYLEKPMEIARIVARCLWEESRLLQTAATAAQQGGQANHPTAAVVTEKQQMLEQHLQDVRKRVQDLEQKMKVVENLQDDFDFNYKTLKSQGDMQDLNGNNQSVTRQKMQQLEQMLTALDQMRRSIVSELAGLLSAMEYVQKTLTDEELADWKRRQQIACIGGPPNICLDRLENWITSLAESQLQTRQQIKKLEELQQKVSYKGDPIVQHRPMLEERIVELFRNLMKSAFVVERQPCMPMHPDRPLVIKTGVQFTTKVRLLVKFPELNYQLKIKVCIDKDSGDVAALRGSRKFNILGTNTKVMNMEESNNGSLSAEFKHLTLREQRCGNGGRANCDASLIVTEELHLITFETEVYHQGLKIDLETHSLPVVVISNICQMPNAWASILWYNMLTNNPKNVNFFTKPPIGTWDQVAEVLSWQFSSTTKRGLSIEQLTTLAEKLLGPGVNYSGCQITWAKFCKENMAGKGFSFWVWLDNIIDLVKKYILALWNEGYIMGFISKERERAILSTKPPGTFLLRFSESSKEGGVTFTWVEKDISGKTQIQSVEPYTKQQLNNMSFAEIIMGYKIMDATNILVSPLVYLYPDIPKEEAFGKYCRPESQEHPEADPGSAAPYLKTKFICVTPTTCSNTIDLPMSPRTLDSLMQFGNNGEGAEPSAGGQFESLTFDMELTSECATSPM", "assay": "Inhibition of STAT3 activation in human MDA-MB-231 cells assessed as reduction in phosphorylated STAT3 nuclear translocation at 5 uM incubated for 24 hrs by immunofluorescence analysis", "format": "cell-based"}, "[22]": {"target": "Serine/threonine-protein kinase Chk1 (Homo sapiens) (UniProt O14757)", "sequence (O14757 whole entry)": "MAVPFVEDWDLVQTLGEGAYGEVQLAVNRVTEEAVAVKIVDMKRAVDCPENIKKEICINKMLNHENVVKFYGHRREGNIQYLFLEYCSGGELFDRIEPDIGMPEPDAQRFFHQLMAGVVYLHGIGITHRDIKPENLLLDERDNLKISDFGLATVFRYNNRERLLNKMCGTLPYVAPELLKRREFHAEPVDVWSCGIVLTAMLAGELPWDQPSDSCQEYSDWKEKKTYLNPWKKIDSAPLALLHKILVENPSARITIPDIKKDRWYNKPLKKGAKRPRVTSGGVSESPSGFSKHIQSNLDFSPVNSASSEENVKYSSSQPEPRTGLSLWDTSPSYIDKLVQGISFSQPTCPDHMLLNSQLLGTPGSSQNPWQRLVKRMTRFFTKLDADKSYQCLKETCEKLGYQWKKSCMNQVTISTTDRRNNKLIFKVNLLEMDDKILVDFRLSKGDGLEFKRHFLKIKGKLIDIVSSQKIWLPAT", "assay": "Inhibition of human recombinant CHK1 at 125 nM"}, "[23]": {"assay": "AUC (0 to t) in ICR mouse at 15 mg/kg, iv administered as single dose and measured for 8 hrs by LC-MS/MS analysis", "format": "ADME, organism-based", "set-up": "time 8 hrs, dose 15 mg/kg, route iv", "conditions": "in vivo"}, "[24]": {"target": "Serine/threonine-protein kinase PLK1 (Homo sapiens, UniProt P53350)", "assay": "Inhibition of PLK1 (unknown origin)"}, "[25]": {"assay": "Oral bioavailability in ICR mouse at 20 mg/kg administered as single dose and measured for 8 hrs by LC-MS/MS analysis", "format": "ADME, organism-based", "conditions": "in vivo"}, "SK-OV-3 [26]": {"test_system": "SK-OV-3", "assay": "Antiproliferative activity against human SK-OV-3 cells assessed as suppression of cell growth incubated for 72 hrs by SRB assay", "format": "functional, cell-based", "conditions": "SK-OV-3, 72 h"}, "MDA-MB-231 [27]": {"test_system": "MDA-MB-231", "assay": "Antimetastatic activity against human MDA-MB-231 cells harboring Luc-mcherry xenografted in BALB/c nude mouse at 15 mg/kg, iv administered once a day for 45 days and measured on day 19,30 and 45 by bioluminescence imaging", "format": "functional, organism-based", "conditions": "time 45.0 day"}, "MDA-MB-231 [28]": {"test_system": "MDA-MB-231", "assay": "Antimetastatic activity in human MDA-MB-231 cells assessed as increase in nuclear scales at 5 uM incubated for 24 hrs by FITC-conjugated phalloidin staining based confocal microscopic analysis", "format": "functional, cell-based"}, "[29]": {"target": "Serine/threonine-protein kinase pim-1 (Homo sapiens, UniProt P11309)", "sequence (P11309 whole entry)": "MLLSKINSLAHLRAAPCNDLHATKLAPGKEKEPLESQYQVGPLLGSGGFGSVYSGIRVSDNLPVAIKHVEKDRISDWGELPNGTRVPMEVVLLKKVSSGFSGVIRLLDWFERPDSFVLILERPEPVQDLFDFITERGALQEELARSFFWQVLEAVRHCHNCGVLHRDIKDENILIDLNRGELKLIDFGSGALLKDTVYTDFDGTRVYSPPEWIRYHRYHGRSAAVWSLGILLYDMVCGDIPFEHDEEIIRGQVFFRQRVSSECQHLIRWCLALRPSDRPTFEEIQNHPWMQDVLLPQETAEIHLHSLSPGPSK", "assay": "Inhibition of PIM1 (unknown origin)"}, "[30]": {"test_system": "Rho-associated protein kinase 2 (Homo sapiens), O75116 [E140A]", "assay": "Binding affinity to N-terminal His10-StrepII tagged human ROCK2 E140A mutant catalytic domain (1 to 553 residues) expressed in Sf9 insect cells assessed as change in melting temperature at 50 uM by SYPRO orange dye based thermal shift assay"}, "[31]": {"target": "Signal transducer and activator of transcription 3 (Homo sapiens) (UniProt P40763)", "assay": "Inhibition of STAT3 transcriptional activity in human MDA-MB-231 cells assessed as reduction in TWIST1 mRNA level at 5 uM incubated for 24 hrs by qRT-PCR analysis", "format": "cell-based"}, "MDA-MB-231 [32]": {"test_system": "MDA-MB-231", "assay": "Inhibition of cell invasion in human MDA-MB-231 cells incubated for 48 hrs by crystal violet staining based transwell assay", "format": "functional", "conditions": "dose 1.25-10 µM"}, "[33]": {"assay": "Toxicity in BALB/c nude mouse xenografted with human MDA-MB-231 cells harboring Luc-mcherry assessed as reduction in body weight at 15 mg/kg, iv administered once a day for 45 days", "format": "organism-based", "conditions": "in vivo, 1080 h, time 45 day"}, "[34]": {"assay": "Cmax in ICR mouse at 15 mg/kg, iv administered as single dose and measured for 8 hrs by LC-MS/MS analysis", "format": "ADME, organism-based", "set-up": "time 8 hrs, dose 15 mg/kg, route iv", "conditions": "in vivo"}, "[35]": {"assay": "AUC (0 to infinity) in ICR mouse at 15 mg/kg, iv administered as single dose and measured for 8 hrs by LC-MS/MS analysis", "format": "ADME, organism-based", "set-up": "time 8 hrs, dose 15 mg/kg, route iv", "conditions": "in vivo"}, "[36]": {"target": "Misshapen-like kinase 1 (Homo sapiens) (UniProt Q8N4C8)", "sequence (Q8N4C8 whole entry, looked up)": "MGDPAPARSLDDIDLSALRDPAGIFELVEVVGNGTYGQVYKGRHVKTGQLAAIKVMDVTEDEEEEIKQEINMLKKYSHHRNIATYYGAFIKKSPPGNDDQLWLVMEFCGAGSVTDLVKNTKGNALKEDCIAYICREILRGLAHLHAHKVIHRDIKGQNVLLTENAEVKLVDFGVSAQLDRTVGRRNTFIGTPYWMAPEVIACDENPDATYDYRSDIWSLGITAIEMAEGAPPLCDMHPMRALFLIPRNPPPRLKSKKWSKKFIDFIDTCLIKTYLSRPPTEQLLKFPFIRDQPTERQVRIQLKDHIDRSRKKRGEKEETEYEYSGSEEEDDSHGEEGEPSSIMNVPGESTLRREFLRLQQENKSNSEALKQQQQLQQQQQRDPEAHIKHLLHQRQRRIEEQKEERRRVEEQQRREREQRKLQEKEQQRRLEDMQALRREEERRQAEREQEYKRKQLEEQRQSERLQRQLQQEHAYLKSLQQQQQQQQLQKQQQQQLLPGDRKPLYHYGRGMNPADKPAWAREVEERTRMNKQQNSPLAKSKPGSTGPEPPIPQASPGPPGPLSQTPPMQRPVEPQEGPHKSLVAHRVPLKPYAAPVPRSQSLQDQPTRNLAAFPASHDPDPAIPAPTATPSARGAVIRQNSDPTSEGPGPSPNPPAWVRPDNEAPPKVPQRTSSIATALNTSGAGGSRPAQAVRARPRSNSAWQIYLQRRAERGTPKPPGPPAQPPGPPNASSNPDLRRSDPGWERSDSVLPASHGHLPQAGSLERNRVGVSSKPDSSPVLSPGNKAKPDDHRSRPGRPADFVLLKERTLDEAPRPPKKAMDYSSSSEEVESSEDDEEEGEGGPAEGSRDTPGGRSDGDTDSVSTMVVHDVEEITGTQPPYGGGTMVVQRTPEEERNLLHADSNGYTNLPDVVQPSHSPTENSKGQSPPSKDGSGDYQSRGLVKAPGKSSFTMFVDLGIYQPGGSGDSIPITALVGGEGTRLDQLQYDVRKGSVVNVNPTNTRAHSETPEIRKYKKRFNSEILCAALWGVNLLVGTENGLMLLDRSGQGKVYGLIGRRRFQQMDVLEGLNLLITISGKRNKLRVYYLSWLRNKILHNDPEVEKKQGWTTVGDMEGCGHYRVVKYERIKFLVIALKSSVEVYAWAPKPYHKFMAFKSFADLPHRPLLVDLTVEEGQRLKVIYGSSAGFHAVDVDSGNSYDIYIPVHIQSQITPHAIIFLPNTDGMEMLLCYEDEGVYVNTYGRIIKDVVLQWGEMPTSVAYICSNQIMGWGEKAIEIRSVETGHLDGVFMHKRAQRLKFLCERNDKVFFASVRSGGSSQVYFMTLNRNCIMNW", "assay": "Inhibition of human recombinant MINK1 at 125 nM"}},
  "note": "Calls of active or inactive are those of the source. The calls are words filed in the database; no cut-off is given here.",
  "data": [
    {"smiles": "O=C1NCc2c1c1c3cc(O)ccc3[nH]c1c1[nH]c3ccccc3c21", "values": [
      {"measurement": "Activity", "setting": "MDA-MB-231 [1]", "result": "Active"},
      {"measurement": "Ratio IC50", "setting": "[2]", "result": "> 100"},
      {"measurement": "Activity", "setting": "MDA-MB-231 [3]", "result": "Active"},
      {"measurement": "inhibition", "setting": "[4]", "result": "Active"},
      {"measurement": "Activity", "setting": "MDA-MB-231 [5]", "result": "Active"},
      {"measurement": "IC50", "setting": "[6]", "result": 6, "unit": "nM"},
      {"measurement": "inhibition", "setting": "MDA-MB-231 [7]", "result": "Active"},
      {"measurement": "IC50", "setting": "MDA-MB-231 [8]", "result": 7190, "unit": "nM"},
      {"measurement": "IC50", "setting": "[9]", "result": 923, "unit": "nM"},
      {"measurement": "IC50", "setting": "[10]", "result": 60.7, "unit": "nM"},
      {"measurement": "Vd", "setting": "[11]", "result": 0.32, "unit": "L/kg"},
      {"measurement": "Activity", "setting": "[12]", "result": "Active"},
      {"measurement": "Activity", "setting": "MDA-MB-231 [13]", "result": "Active"},
      {"measurement": "inhibition", "setting": "MDA-MB-231 [14]", "result": "Active"},
      {"measurement": "Ratio IC50", "setting": "[15]", "result": "> 10"},
      {"measurement": "inhibition", "setting": "SK-OV-3 [16]", "result": "Active"},
      {"measurement": "IC50", "setting": "[17]", "result": 139, "unit": "nM"},
      {"measurement": "Activity", "setting": "MDA-MB-231 [18]", "result": "Active"},
      {"measurement": "Activity", "setting": "[19]", "result": "inactive"},
      {"measurement": "Activity", "setting": "MDA-MB-231 [20]", "result": "Active"},
      {"measurement": "inhibition", "setting": "[21]", "result": "Active"},
      {"measurement": "inhibition", "setting": "[22]", "result": "Active"},
      {"measurement": "AUC(0-t) at 8 h", "setting": "[23]", "result": 6240, "unit": "ng·h/mL"},
      {"measurement": "IC50", "setting": "[24]", "result": "> 10000", "unit": "nM"},
      {"measurement": "bioavailability", "setting": "[25]", "result": "< 1", "unit": "%"},
      {"measurement": "IC50", "setting": "SK-OV-3 [26]", "result": 4440, "unit": "nM"},
      {"measurement": "Activity", "setting": "MDA-MB-231 [27]", "result": "Active"},
      {"measurement": "Activity", "setting": "MDA-MB-231 [28]", "result": "Active"},
      {"measurement": "IC50", "setting": "[29]", "result": 308, "unit": "nM"},
      {"measurement": "Activity", "setting": "[30]", "result": "inactive"},
      {"measurement": "inhibition", "setting": "[31]", "result": "Active"},
      {"measurement": "inhibition", "setting": "MDA-MB-231 [32]", "result": "Dose-Dependent Effect"},
      {"measurement": "Activity", "setting": "[33]", "result": "Non-Toxic"},
      {"measurement": "Cmax", "setting": "[34]", "result": 21600, "unit": "ng/mL"},
      {"measurement": "AUC(0-inf)", "setting": "[35]", "result": 6250, "unit": "ng·h/mL"},
      {"measurement": "inhibition", "setting": "[36]", "result": "Active"}
    ]}
  ]
}
